{"source": "patent US20230293519A1", "about": "“INTEGRIN INHIBITORS AND USES THEREOF IN COMBINATION WITH OTHER AGENTS” (Pliant Therapeutics, Inc., priority 2021, published 2023)", "key": {"[1]": {"assay": "Unbound plasma concentration in the PET/CT study", "format": "in vivo", "settings": "human", "experimental": "This Example was conducted as an open-label, single-dose (60 mg, 120 mg, 240 mg or 320 mg) clinical trial evaluating αvβ6 receptor occupancy in the lungs, safety, and pharmacokinetics of Compound #5 in subjects with IPF. To date, 4 participants have completed the study. Each of these 4 participants was undergoing a pre-existing course of therapy using one of the SoC (Standard of Care) compounds, nintedanib. These participants continued their pre-existing nintedanib therapy throughout this study. Knottin tracer uptake kinetics were compared pre- and post-dose of the disclosed compound, as measured by standardized uptake values (SUVs) and parameters estimated from kinetic modeling in regions-of-interest on dynamic [^18F]FP-R01-MG-F2 PET/CT scans. […] Receptor occupancy was estimated from the output of the two-compartment model (VT, the […]) using standard equations and fitting algorithms, and corrections for VND (non-displaceable tracer binding). For example, in FIG. 10, the data points, shown as circles, are modeled by the following formula: […]\nFIG. 9 is a graph of unbound plasma concentration (X-axis) vs Vt (Y-axis) for the baseline Vt at each dose, the measured Vt after each dose, and a fit line. FIG. 10 is a graph of unbound plasma concentration (X-axis) vs % receptor occupancy (Y-axis). FIG. 11 is a bar chart showing % target engagement for each subject and dose."}, "SMAD3 phosphorylation": {"tested_on": "SMAD3 phosphorylation", "assay": "pSMAD3/SMAD3 in lung tissue and BALF of healthy mice", "format": "in vivo, mouse", "settings": "4 days of treatment, dose dependent"}, "[2]": {"tested_on": "Type I Collagen gene Col1a1 expression", "assay": "Precision cut lung slices of mice under acute bleomycin exposure", "format": "cell-based, mouse", "settings": "slices cultured 3 days; integrin inhibitors at IC50, pan-αv and ALK5 inhibitors at 10x IC50", "experimental": "Mice (C57BL/6) were administered 3 U/kg of bleomycin (Teva Pharmaceuticals; North Wales, PA) on day 0 via oropharyngeal aspiration while under anesthesia. On day 14, precision cut lung slices were obtained. Following euthanization, 2% low gelling temp agarose was injected into the mouse lungs via the trachea. […] The lobes were then subjected to precision slicing to obtain samples for culture using a microtome (Compresstome VF-300-0Z, Precisionary; Greenville, NC). Individual slices were distributed in a multiwell culture plate and cultured for 3 days under control (DMSO) and test compound conditions."}, "[3]": {"tested_on": "patients with idiopathic pulmonary fibrosis (IPF)", "assay": "Phase 2a trial in IPF: safety and tolerability", "description": "Approximately 80% of the enrolled patients were on standard of care and were equally distributed between nintedanib and pirfenidone."}}, "note": "Entries after “also recorded” stand apart in the source; their conditions may differ."}
{"smiles": "COCCN(CCCCc1ccc2c(n1)NCCC2)CC[C@H](Nc1ncnc2ccccc12)C(=O)O", "note": "[Compound 5, (S)-4-((2-methoxyethyl)(4-(5,6,7,8-tetrahydro-1,8-naphthyridin-2-yl)butyl)amino)-2-(quinazolin-4-ylamino)butanoic acid]", "values": [{"measurement": "concentration at 4 h", "setting": "[1]; 60 mg, Subject A00, 60 mg single dose", "value": 3.66, "unit": "nM"}, {"measurement": "concentration at 4 h", "setting": "[1]; 120 mg, Subject B120, 120 mg", "value": 10, "unit": "nM"}, {"measurement": "concentration at 4 h", "setting": "[1]; 240 mg, Subject B240, 240 mg", "value": 58.3, "unit": "nM"}, {"measurement": "concentration at 4 h", "setting": "[1]; 240 mg, Subject C240, 240 mg", "value": 103, "unit": "nM"}, {"measurement": "concentration at 4 h", "setting": "[1]; 320 mg, Subject D320, 320 mg", "value": 33.6, "unit": "nM"}, {"measurement": "concentration at 4 h", "setting": "[1]; Subject C320, 320 mg", "value": 96.5, "unit": "nM"}, {"measurement": "SMAD3 phosphorylation (pSMAD3/SMAD3) in cells isolated from BALF, % of the untreated levels", "setting": "SMAD3 phosphorylation", "value": "approximately 50%"}, {"measurement": "SMAD3 phosphorylation (pSMAD3/SMAD3) in lung tissue, % of the untreated levels", "setting": "SMAD3 phosphorylation", "value": "approximately 50%"}, {"measurement": "Type I Collagen gene Col1a1 expression vs DMSO control", "setting": "[2]", "value": "decreased Type I Collagen gene Col1a1 expression substantially"}, {"measurement": "discontinuations due to adverse events", "setting": "[3]; 12 weeks", "value": "no discontinuations due to adverse events"}, {"measurement": "severity of most treatment emergent adverse events (TEAE)", "setting": "[3]; 12 weeks", "value": "mild or moderate"}, {"measurement": "treatment related deaths or drug related serious adverse events (SAE)", "setting": "[3]; 12 weeks", "value": "No treatment related deaths or drug related serious adverse events; also recorded: No treatment related SAEs or deaths"}, {"measurement": "patients completing 12 weeks of treatment (65 of 67)", "setting": "[3]; 40, 80, 160 mg once daily", "value": 97, "unit": "%"}, {"measurement": "tolerability", "setting": "[3]; 40, 80, 160 mg once daily, 12 weeks", "value": "safe and well tolerated"}, {"measurement": "serious adverse events", "setting": "[3]; Compound 5 alone", "value": "did not result in serious adverse events"}]}
